Measured values: article PMC6009956, “Design, synthesis and biological activity of N^4-phenylsubstituted-7H-pyrrolo[2,3-d]pyrimidin-4-amines as dual inhibitors of aurora kinase A and epidermal growth factor receptor kinase” (Journal of Enzyme Inhibition and Medicinal Chemistry, 2017)

Key:
Format in all cases: cell-based
FADU cells [1] = experiment: Cell killing, PI staining and FACS, FADU
Method: (§1) FADU, BHY, SAS and CAL cell lines were obtained from ATCC-LGC and were cultured in DMEM (Invitrogen, Germany) supplemented with 10% of heat activated bovine serum (FBS, PAA, Germany), 1% of glutamine, 1% of penicillin-streptomycin (Invitrogen, Germany). To measure proliferation, SCCHN cells were split, reseeded (5 × 10^5 in 25 cm^2 flasks) and counted at the indicated time points. Cells were then replated at the initial density. The fold increase in cell number was calculated, all given results are based on triplicate experiments. To assess cell death 5 × 10^5 cells were stained with propidium iodide (PI, Sigma, Germany). Following incubation, cells were washed, resuspended in PBS, and analysed by flow cytometry. The fraction of PI-positive cells is reported as dead cell fraction.
(§2) Figure 3. […] Cells were incubated with compound 2 for 48 h and then subjected to PI staining and FACS analysis. PI-positive cell fraction as measure of cell death is reported. (B) Four SCCHN cell lines were incubated with 100 μM of compound 2 and counted on the indicated days. Experiments in triplicates, fold growth shown. (C) EGFR expression of SCCHN cell lines. EGFR high and low as detected by western blot analysis (D) The SCCHN cell lines were incubated with 100 μM of compound 2 for 72 h. Percent PI positive cells are given. Experiments in triplicates.

CAL cells [2] = experiment: Proliferation (cell counting), CAL; details: 100 µM
Method: as §1, §2

[3] = tested on: Phosphorylated histone H3 (p-HH3) in BHY and FADU SCCHN cell lines; experiment: Western blot of p-HH3 in BHY and FADU cells; details: 100 μM
Method: Protein extracts (50 μg per lane) were electrophoretically separated on SDS-PAGE gels, transferred to membranes (Protran, Schleicher & Schuell, Dassel, Germany) and blotted with specific antibodies (actin, aurora A, aurora B: all from Sigma, Munich, Germany; S10-HH3: Millipore, Schwalbach, Germany; EGFR: Santa Cruz, Heidelberg, Germany; pEGFR: Invitrogen, Darmstadt, Germany; pAKT, pERK: both from New England Biolabs, Frankfurt, Germany).
Figure 4. Effects of compound 2 on EGFR and aurora kinases in growing SCCHN cell lines (A) Western blot analysis of EGFR (pEGFR, pERK, p-AKT) and aurora A (p-HH3) downstream target proteins following incubation with 100 μM compound 2 for the indicated time points in BHY and FADU SCCHN cell lines. (B) BHY and CAL cell lines treated for the indicated time points with 200 nM cetuximab. Western blot analysis of EGFR downstream targets. (long exposure and short exposure). […] Western blot analysis of p-HH3 at the indicated time points. Asterisk (*) represents unspecific band.

FADU cells [4] = experiment: Proliferation (cell counting), FADU; details: 100 µM
Method: as §1, §2

CAL cells [5] = experiment: Cell killing, PI staining and FACS, CAL; details: 100 µM, 72 h
Method: as §1, §2

SAS cells = experiment: Cell killing, PI staining and FACS, SAS; details: 100 µM, 72 h
Method: as §1, §2

SMILES: Brc1cccc(Nc2ncnc3[nH]ccc23)c1 [Compound 2, N^4-(3-bromophenyl)-7H-pyrrolo[2,3-d]pyrimidine-4-amine]
- Cell killing (PI positive cells) (FADU cells [1]; FADU, 100 µM, 72 h): efficient cell killing
- IC50 (FADU cells [1]; Homo sapiens, FaDu, 48 h, read-out: IC50 cellular killing (PI-positive fraction)): 150 µM
- Cell growth (fold growth) (CAL cells [2]): completely inhibited cell growth
- Effect on histone p-HH3 [3]: Modest effects
- Cell growth (fold growth) (FADU cells [4]): completely inhibited cell growth
- Cell killing (PI positive cells) (CAL cells [5]): efficient cell killing
- Cell killing (PI positive cells) (SAS cells): efficient cell killing
